Results reported in US20210060016A1, “ANTICANCER AGENT” (JAPANESE FOUNDATION FOR CANCER RESEARCH, priority 2017, published 2021).

Target: T1, tankyrase-2 (Homo sapiens, UniProt Q9H2K2)
T1 sequence (Q9H2K2 1-1166): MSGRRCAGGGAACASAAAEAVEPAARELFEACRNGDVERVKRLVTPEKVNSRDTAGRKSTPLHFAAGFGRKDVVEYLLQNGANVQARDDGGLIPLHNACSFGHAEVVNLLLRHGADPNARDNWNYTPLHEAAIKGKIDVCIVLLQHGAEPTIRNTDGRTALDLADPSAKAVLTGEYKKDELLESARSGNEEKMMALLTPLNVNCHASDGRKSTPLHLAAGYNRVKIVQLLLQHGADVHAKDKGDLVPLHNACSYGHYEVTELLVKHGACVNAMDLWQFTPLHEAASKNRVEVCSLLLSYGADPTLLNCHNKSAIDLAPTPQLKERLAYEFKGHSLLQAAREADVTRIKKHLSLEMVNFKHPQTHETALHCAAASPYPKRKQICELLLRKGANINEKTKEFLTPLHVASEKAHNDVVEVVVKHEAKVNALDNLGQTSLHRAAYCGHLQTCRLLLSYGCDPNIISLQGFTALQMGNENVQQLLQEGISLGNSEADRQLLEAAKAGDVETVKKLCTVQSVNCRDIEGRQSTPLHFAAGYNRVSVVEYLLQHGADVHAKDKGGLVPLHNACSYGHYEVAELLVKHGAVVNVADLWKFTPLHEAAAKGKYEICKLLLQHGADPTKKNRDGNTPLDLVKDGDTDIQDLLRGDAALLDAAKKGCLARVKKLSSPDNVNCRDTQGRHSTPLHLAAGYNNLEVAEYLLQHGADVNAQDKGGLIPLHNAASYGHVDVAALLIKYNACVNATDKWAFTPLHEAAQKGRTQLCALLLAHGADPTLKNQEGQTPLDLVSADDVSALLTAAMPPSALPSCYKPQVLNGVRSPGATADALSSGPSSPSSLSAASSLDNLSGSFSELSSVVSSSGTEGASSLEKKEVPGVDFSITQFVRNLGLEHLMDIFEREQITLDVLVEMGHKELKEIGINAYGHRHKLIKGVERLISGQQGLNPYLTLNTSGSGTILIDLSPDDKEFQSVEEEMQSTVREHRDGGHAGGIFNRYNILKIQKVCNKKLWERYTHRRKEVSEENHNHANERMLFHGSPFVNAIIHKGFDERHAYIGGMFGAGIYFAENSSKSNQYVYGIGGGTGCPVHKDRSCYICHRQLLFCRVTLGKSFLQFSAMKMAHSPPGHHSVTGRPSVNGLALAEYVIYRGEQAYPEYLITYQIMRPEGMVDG
Assay: X-ray diffraction of tankyrase-2 crystal soaked with the compound
Type: binding
From the text: In the present invention, whether the tankyrase inhibitory compound is a nicotinamide-type compound or an adenosine-type compound can be determined by X-ray diffraction, more specifically a method in which a complex is crystallized from a mixed liquid of a tankyrase crystal prepared beforehand and the tankyrase inhibitory compound, and subjected to X-ray diffraction (soaking method), or a method in which a complex is crystallized from a mixed liquid having the tankyrase inhibitory compound coexisting with tankyrase in a state before the crystallization, and subjected to X-ray diffraction (co-crystallization). Whether the tankyrase inhibitory compound is a dual-type compound can be determined by preparing a crystal under any one of the above-described conditions, and performing X-ray diffraction.
X-ray diffraction data of a tankyrase-2 crystal soaked with the compound prepared in Compound Example 1 was measured with BL26B2 Beam Line in a large synchrotron radiation facility Spring-8 (Sayo-gun, Hyogo). The wavelength of the X-ray was 1.000 Å, and MX-225 (Rayonix, LLC) was used as a detector. The diffraction data was treated with XDS (Kabsch, 2010) and the CCP4 program (Winn et al., 2011).

CCOc1ccc(-c2n[nH]nc2[C@H]2NC(=O)c3cccc(C)c3N2)cc1 [Compound Example 101, (2R)-2-[5-(4-Ethoxyphenyl)-2H-1,2,3-triazol-4-yl]-8-methyl-2,3-dihydro-1H-quinazolin-4-one]
binding pocket type by X-ray diffraction: nicotinamide-type compound which binds to the nicotinamide binding pocket of tankyrase
